Assay results taken from US12077503B2, “Substituted cyclic amides and their use as herbicides” (FMC CORPORATION, priority 2015, dated 2024).
Like-named read-outs stand apart in the source and are kept apart here.

Key:
Format in all cases: in vivo
corn (Zea mays) = test: Test A postemergence; settings: Zea mays, post-emergence, 240 h; for plant injury at 125 g/ha / Corn plant response rating (crop injury, 0 = no effect, 100 = complete kill) at 500 g/ha: Postemergence; for plant injury at 125 g/ha: visual rating about 10 d after treatment, read-out: Corn plant response rating (0 to 100 scale); for Corn plant response rating (crop injury, 0 = no effect, 100 = complete kill) at 500 g/ha: 500 g ai/ha, visual injury, approx. 10 d
In short: (§1)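 Greenhouse, ~10 d after spray; visual injury vs untreated controls, 0 = no effect, 100 = complete control. Preemergence: directed soil spray over planted seeds. Postemergence: plants 2–10 cm, 1–2 leaf stage. Loam/sand blend. Compound in non-phytotoxic solvent with surfactant.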

[1] = tested on: wheat (Triticum aestivum); test: Test A postemergence; settings: Triticum aestivum, post-emergence, 240 h; for plant injury at 125 g/ha: 125 g ai/ha; for plant injury at 500 g/ha: 500 g ai/ha, visual injury, approx. 10 d
In short: as §1

[2] = tested on: ryegrass, Italian (Italian ryegrass, Lolium multiflorum); test: Test A postemergence; settings: Lolium multiflorum, post-emergence, 240 h; for pest or weed control at 125 g/ha: 125 g ai/ha; for pest or weed control at 500 g/ha: 500 g ai/ha, visual injury, approx. 10 d
In short: as §1

[3] = tested on: Galium (catchweed bedstraw, Galium aparine); test: Test A postemergence; settings: Galium, post-emergence, 240 h; for pest or weed control at 125 g/ha: 125 g ai/ha; for pest or weed control at 500 g/ha: 500 g ai/ha, visual injury, approx. 10 d
In short: as §1

[4] = tested on: barnyardgrass (Echinochloa crus-galli); test: Test A postemergence; settings: Echinochloa crus-galli, post-emergence, 240 h; for pest or weed control at 125 g/ha: 125 g ai/ha; for pest or weed control at 500 g/ha: 500 g ai/ha, visual injury, approx. 10 d
In short: as §1

[5] = tested on: giant foxtail (Setaria faberii); test: Test A postemergence; settings: Setaria faberi, post-emergence, 240 h; for pest or weed control at 125 g/ha: 125 g ai/ha; for pest or weed control at 500 g/ha: 500 g ai/ha, visual injury, approx. 10 d
In short: as §1

[6] = tested on: ragweed (common ragweed, Ambrosia elatior); test: Test A postemergence; settings: Ambrosia artemisiifolia, post-emergence, 240 h; for pest or weed control at 125 g/ha: 125 g ai/ha; for pest or weed control at 500 g/ha: 500 g ai/ha, visual injury, approx. 10 d
In short: as §1

Kochia (Kochia scoparia) = test: Test A postemergence; settings: Bassia scoparia, post-emergence, 240 h; for pest or weed control at 125 g/ha: 125 g ai/ha; for pest or weed control at 500 g/ha: 500 g ai/ha, visual injury, approx. 10 d
In short: as §1

[7] = tested on: blackgrass (Alopecurus myosuroides); test: Test A postemergence; settings: Alopecurus myosuroides, post-emergence, 240 h; for pest or weed control at 125 g/ha: 125 g ai/ha; for pest or weed control at 500 g/ha: 500 g ai/ha, visual injury, approx. 10 d
In short: as §1

[8] = tested on: pigweed (Amaranthus retroflexus); test: Test A postemergence; settings: Amaranthus retroflexus, post-emergence, 240 h; for pest or weed control at 125 g/ha: 125 g ai/ha; for pest or weed control at 500 g/ha: 500 g ai/ha, visual injury, approx. 10 d
In short: as §1

[9] = tested on: sedge, umbrella (small-flower umbrella sedge, Cyperus difformis); test: Test B flooded paddy test; settings: Cyperus difformis, Flood, 250 g ai/ha
In short: (§2)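 Greenhouse paddy pots with 2-leaf stage plants received compound by direct addition to floodwater 3 cm deep, kept at that level. Scored visually at 13–15 d versus controls (0 no effect; 100 complete control).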

[10] = tested on: barnyardgrass (Echinochloa crus-galli); test: Test B flooded paddy test; settings: Echinochloa crus-galli, 250 g ai/ha, Flood
In short: as §2

[11] = tested on: ducksalad (Heteranthera limosa); test: Test B flooded paddy test; settings: Heteranthera limosa, 250 g ai/ha, Flood
In short: as §2

rice (Oryra sativa) = test: Test B flooded paddy test; settings: Oryza sativa, 250 g ai/ha, Flood
In short: as §2

[12] = 0 to 100 scale (0 no effect, 100 complete control)
[13] = Postemergence, visual rating about 10 d after treatment, read-out: Wheat plant response rating (0 to 100 scale)
[14] = Postemergence, 0 to 100 scale (0 no effect, 100 complete control), read-out: Plant response rating, Wheat
[15] = Postemergence, visual rating about 10 d after treatment, read-out: Ryegrass, Italian plant response rating (0 to 100 scale)
[16] = Postemergence, 0 to 100 scale (0 no effect, 100 complete control), read-out: Plant response rating, Ryegrass, Italian
[17] = Postemergence, visual rating about 10 d after treatment, read-out: Galium plant response rating (0 to 100 scale)
[18] = Postemergence, 0 to 100 scale (0 no effect, 100 complete control), read-out: Plant response rating, Galium
[19] = Postemergence, visual rating about 10 d after treatment, read-out: Barnyardgrass plant response rating (0 to 100 scale, 0 no effect, 100 complete control)
[20] = Postemergence, 0 to 100 scale (0 no effect, 100 complete control), read-out: Plant response rating, Barnyardgrass
[21] = Postemergence, visual rating about 10 d after treatment, read-out: Foxtail, Giant plant response rating (0 to 100 scale)
[22] = Postemergence, 0 to 100 scale (0 no effect, 100 complete control), read-out: Plant response rating, Foxtail, Giant
[23] = Postemergence, visual rating about 10 d after treatment, read-out: Ragweed plant response rating (0 to 100 scale)
[24] = Postemergence, 0 to 100 scale (0 no effect, 100 complete control), read-out: Plant response rating, Ragweed
[25] = Postemergence, visual rating about 10 d after treatment, read-out: Kochia plant response rating (0 to 100 scale)
[26] = Postemergence, 0 to 100 scale (0 no effect, 100 complete control), read-out: Plant response rating, Kochia
[27] = Postemergence, visual rating about 10 d after treatment, read-out: Blackgrass plant response rating (0 to 100 scale)
[28] = Postemergence, 0 to 100 scale (0 no effect, 100 complete control), read-out: Plant response rating, Blackgrass
[29] = Postemergence, visual rating about 10 d after treatment, read-out: Pigweed plant response rating (0 to 100 scale)
[30] = Postemergence, 0 to 100 scale (0 no effect, 100 complete control), read-out: Plant response rating, Pigweed
[31] = 360 h, visually evaluated after 13 to 15 d, read-out: Plant response rating, Sedge, Umbrella (0 to 100 scale where 0 is no effect and 100 is complete control)

| Structure (SMILES) | plant injury at 125 g/ha (corn (Zea mays); 125 g ai/ha) | Corn plant response rating (crop injury, 0 = no effect, 100 = complete kill) at 500 g/ha (corn (Zea mays); [12]) | plant injury at 125 g/ha [1, 13] | plant injury at 500 g/ha [1, 14] | pest or weed control at 125 g/ha [2, 15] | pest or weed control at 500 g/ha [2, 16] | pest or weed control at 125 g/ha [3, 17] | pest or weed control at 500 g/ha [3, 18] | pest or weed control at 125 g/ha [4, 19] | pest or weed control at 500 g/ha [4, 20] | pest or weed control at 125 g/ha [5, 21] | pest or weed control at 500 g/ha [5, 22] | pest or weed control at 125 g/ha [6, 23] | pest or weed control at 500 g/ha [6, 24] | pest or weed control at 125 g/ha (Kochia (Kochia scoparia); [25]) | pest or weed control at 500 g/ha (Kochia (Kochia scoparia); [26]) | pest or weed control at 125 g/ha [7, 27] | pest or weed control at 500 g/ha [7, 28] | pest or weed control at 125 g/ha [8, 29] | pest or weed control at 500 g/ha [8, 30] | further results |
| --- | --- | --- | --- | --- | --- | --- | --- | --- | --- | --- | --- | --- | --- | --- | --- | --- | --- | --- | --- | --- | --- |
| Cc1c(F)ccc([C@H]2CNC(=O)[C@@H]2C(=O)Nc2cccc(F)c2F)c1F [Compound 1327] | 0% | 0% | 0% | 0% | 0% | 40% | 30% | 50% | 90% | 90% | 20% | 70% | 0% | 20% | 0% | 30% | 0% | 20% | 0% | 0% | pest or weed control at 250 g/ha [9, 31]: 0%; pest or weed control at 250 g/ha ([10]; 0 to 100 scale where 0 is no effect and 100 is complete control, read-out: Barnyardgrass plant response rating): 30%; pest or weed control at 250 g/ha ([11]; 0 to 100 scale where 0 is no effect and 100 is complete control, read-out: Ducksalad plant response rating): 100%; pest or weed control at 250 g/ha (rice (Oryra sativa); 0 to 100 scale where 0 is no effect and 100 is complete control, read-out: Rice plant response rating): 0% |
| Cc1c(F)ccc([C@H]2CNC(=O)[C@@H]2C(=O)Nc2ccc(F)cc2F)c1F [Compound 1328] | 0% | 0% | 0% | 0% | 0% | 30% | 0% | 30% | 60% | 90% | 0% | 40% | 0% | 0% | 0% | 0% | 0% | 0% | 0% | 0% | pest or weed control at 250 g/ha [9, 31]: 0%; pest or weed control at 250 g/ha ([10]; 360 h, visually evaluated after 13 to 15 d, read-out: Plant response rating, Barnyardgrass (0 to 100 scale where 0 is no effect and 100 is complete control)): 0%; pest or weed control at 250 g/ha ([11]; 360 h, visually evaluated after 13 to 15 d, read-out: Plant response rating, Ducksalad (0 to 100 scale where 0 is no effect and 100 is complete control)): 50%; pest or weed control at 250 g/ha (rice (Oryra sativa); 360 h, visually evaluated after 13 to 15 d, read-out: Plant response rating, Rice (0 to 100 scale where 0 is no effect and 100 is complete control)): 0% |
| CS(=O)(=O)c1ccccc1NC(=O)[C@H]1C(=O)NC[C@@H]1c1cccc2c1OC(F)(F)O2 [Compound 753] | – | – | – | – | – | – | – | – | – | – | – | – | – | – | – | – | – | – | – | – | Corn plant response rating (crop injury, 0 = no effect, 100 = complete kill) at 125 g/ha (corn (Zea mays); 125 g ai/ha, postemergence, visual injury after approximately 10 d, 0 to 100 scale (0 no effect, 100 complete control)): 0%; plant injury at 125 g/ha ([1]; postemergence, visual injury after approximately 10 d, 0 to 100 scale (0 no effect, 100 complete control), read-out: Plant response rating, Wheat): 0%; pest or weed control at 125 g/ha ([2]; postemergence, visual injury after approximately 10 d, 0 to 100 scale (0 no effect, 100 complete control), read-out: Plant response rating, Ryegrass, Italian): 0%; pest or weed control at 125 g/ha ([3]; postemergence, visual injury after approximately 10 d, 0 to 100 scale (0 no effect, 100 complete control), read-out: Plant response rating, Galium): 0%; pest or weed control at 125 g/ha ([4]; postemergence, visual injury after approximately 10 d, 0 to 100 scale (0 no effect, 100 complete control), read-out: Plant response rating, Barnyardgrass): 50%; pest or weed control at 125 g/ha ([5]; postemergence, visual injury after approximately 10 d, 0 to 100 scale (0 no effect, 100 complete control), read-out: Plant response rating, Foxtail, Giant): 0%; pest or weed control at 125 g/ha ([6]; postemergence, visual injury after approximately 10 d, 0 to 100 scale (0 no effect, 100 complete control), read-out: Plant response rating, Ragweed): 0%; pest or weed control at 125 g/ha (Kochia (Kochia scoparia); postemergence, visual injury after approximately 10 d, 0 to 100 scale (0 no effect, 100 complete control), read-out: Plant response rating, Kochia): 0%; pest or weed control at 125 g/ha ([7]; postemergence, visual injury after approximately 10 d, 0 to 100 scale (0 no effect, 100 complete control), read-out: Plant response rating, Blackgrass): 0%; pest or weed control at 125 g/ha ([8]; postemergence, visual injury after approximately 10 d, 0 to 100 scale (0 no effect, 100 complete control), read-out: Plant response rating, Pigweed): 0%; pest or weed control at 250 g/ha ([9]; scale of 0 to 100 where 0 is no effect and 100 is complete control, read-out: Sedge, Umbrella plant response rating): 0%; pest or weed control at 250 g/ha ([10]; scale of 0 to 100 where 0 is no effect and 100 is complete control, read-out: Barnyardgrass plant response rating): 0%; pest or weed control at 250 g/ha ([11]; scale of 0 to 100 where 0 is no effect and 100 is complete control, read-out: Ducksalad plant response rating): 60%; pest or weed control at 250 g/ha (rice (Oryra sativa); scale of 0 to 100 where 0 is no effect and 100 is complete control, read-out: Rice plant response rating): 0% |
